# Laboratory results published in ChEMBL document CHEMBL1201862, “PubChem BioAssay data set” (2004).
# The source made the active and inactive calls.
# Assays:
# [1] = target: T1, DNA repair and recombination protein RAD54-like (Homo sapiens, UniProt Q92698); assay: RAD54 Holliday junction migration blockers – biochemical, fluorescence, cherry-picked samples, dose series, confirmation (AID 651657); type: functional
# T1 sequence (Q92698 whole entry): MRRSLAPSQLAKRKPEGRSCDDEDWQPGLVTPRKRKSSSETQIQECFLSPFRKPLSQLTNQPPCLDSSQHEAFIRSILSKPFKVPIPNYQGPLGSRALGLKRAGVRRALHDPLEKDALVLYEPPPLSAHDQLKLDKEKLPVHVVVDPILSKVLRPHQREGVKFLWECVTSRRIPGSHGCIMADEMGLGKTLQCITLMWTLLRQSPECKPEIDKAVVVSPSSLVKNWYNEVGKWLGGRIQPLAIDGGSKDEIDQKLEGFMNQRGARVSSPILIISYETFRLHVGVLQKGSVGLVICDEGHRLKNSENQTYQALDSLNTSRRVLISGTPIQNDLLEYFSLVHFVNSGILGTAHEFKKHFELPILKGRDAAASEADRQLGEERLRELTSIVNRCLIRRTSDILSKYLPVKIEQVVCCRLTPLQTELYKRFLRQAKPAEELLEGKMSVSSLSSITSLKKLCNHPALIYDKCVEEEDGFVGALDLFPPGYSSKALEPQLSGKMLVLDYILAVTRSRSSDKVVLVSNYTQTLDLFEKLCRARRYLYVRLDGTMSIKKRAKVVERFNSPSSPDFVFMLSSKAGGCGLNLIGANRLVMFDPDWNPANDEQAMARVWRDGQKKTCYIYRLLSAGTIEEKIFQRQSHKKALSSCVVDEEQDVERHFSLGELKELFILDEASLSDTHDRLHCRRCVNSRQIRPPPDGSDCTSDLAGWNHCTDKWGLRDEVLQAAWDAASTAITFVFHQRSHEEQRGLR
# [2] = target: T2, DNA repair protein RAD52 homolog (Homo sapiens, UniProt P43351); type: functional, biochemical
# T2 sequence (P43351 whole entry): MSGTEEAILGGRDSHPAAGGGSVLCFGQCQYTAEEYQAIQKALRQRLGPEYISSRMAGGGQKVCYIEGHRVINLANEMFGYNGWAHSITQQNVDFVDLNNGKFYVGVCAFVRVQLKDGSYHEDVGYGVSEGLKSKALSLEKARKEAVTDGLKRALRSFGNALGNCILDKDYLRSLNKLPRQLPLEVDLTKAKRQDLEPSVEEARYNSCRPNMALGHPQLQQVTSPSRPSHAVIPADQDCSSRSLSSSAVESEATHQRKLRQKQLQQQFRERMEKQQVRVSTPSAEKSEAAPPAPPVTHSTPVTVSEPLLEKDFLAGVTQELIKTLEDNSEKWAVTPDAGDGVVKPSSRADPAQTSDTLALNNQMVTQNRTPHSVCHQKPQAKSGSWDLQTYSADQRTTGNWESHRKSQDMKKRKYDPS
# Vero = assay: cells; type: functional; details: Chlorocebus sabaeus
# [3] = Trypanosoma cruzi growth suppression in host cells – NIH3T3 host cells, beta-gal luminescence, confirmation (AID 2044); type: functional, cell-based;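 further: intracellular parasites grown in NIH/3T3 mouse fibroblasts as host cells; luminescent beta-galactosidase reporter signal from transgenic T. cruzi replicating inside host cells; inhibitors lower the luminescence signal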
# [4] = NIH3T3 cell viability loss – ATP luminescence, mouse fibroblasts, counter-screen, dose response (AID 2010); type: functional, cell-based;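 further: cells exposed to compound for about 90 hours before reading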
# [5] = target: Voltage-dependent T-type calcium channel subunit alpha-1H (Homo sapiens, UniProt O95180); type: functional;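 further: channel activity triggered by adding a high calcium stimulation buffer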
# Fatty acid synthase [6] = target: T3, Fatty acid synthase (Homo sapiens, UniProt P49327); assay: inhibition of human FAS-TE enzyme activity – biochemical, kinetic fluorescence intensity, dose response (AID 624326); type: functional;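 further: rate of fluorescence rise from hydrolysis of a fluorogenic O-methyl fluorescein ester substrate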
# Fatty acid synthase [7] = target: T3, Fatty acid synthase; assay: inhibition of human FAS-TE enzyme activity – biochemical, endpoint fluorescence intensity, uHTS hits, dose response (AID 624327); type: functional;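 further: fluorescence from hydrolysis of an O-methyl fluorescein acyl ester substrate by the enzyme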
# [8] = target: T4, Short transient receptor potential channel 4 (Mus musculus, UniProt Q9QUQ5); assay: block of DAMGO-driven TRPC4 calcium entry – cell-based, HEK293 TRPC4/mu-opioid, Fluo-4 calcium, dose response (AID 434942); type: functional;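 further: potency of inhibitors blocking the TRPC4 calcium response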
# T4 sequence (Q9QUQ5 whole entry): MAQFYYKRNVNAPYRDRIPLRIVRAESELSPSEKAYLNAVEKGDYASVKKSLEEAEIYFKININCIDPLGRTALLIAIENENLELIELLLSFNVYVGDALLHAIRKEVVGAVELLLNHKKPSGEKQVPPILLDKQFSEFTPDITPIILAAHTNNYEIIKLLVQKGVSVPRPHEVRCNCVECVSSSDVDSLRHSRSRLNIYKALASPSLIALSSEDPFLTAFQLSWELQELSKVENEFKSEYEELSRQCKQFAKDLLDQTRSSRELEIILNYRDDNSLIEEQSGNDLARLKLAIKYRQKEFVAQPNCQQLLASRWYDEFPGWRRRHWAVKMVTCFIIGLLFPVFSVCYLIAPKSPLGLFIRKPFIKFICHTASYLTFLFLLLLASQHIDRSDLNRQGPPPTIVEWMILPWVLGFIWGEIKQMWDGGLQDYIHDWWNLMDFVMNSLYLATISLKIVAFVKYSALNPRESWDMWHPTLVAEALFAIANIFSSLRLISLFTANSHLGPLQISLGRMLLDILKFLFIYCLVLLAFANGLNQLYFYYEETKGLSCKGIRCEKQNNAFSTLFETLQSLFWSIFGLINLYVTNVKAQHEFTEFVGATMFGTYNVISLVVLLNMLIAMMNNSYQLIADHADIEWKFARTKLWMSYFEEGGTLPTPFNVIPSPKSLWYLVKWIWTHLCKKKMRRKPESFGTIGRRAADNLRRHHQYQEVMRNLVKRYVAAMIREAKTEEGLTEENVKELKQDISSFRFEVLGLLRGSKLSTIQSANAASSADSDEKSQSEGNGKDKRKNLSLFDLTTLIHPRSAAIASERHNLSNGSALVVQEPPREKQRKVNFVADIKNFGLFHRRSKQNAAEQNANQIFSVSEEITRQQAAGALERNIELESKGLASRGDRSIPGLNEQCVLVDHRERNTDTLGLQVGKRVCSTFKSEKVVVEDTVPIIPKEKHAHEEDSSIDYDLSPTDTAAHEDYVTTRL
# [9] = target: T4, Short transient receptor potential channel 4; assay: calcium entry via TRPC4 opening agents – cell-based, HEK293 TRPC4/mu-opioid, Fluo-4 calcium, dose response (AID 434937); type: functional
# [10] = target: T5, Rac GTPase-activating protein 1 (Homo sapiens, UniProt Q9H0H5); assay: blockers of MgcRacGAP-driven Rac1 GTP hydrolysis – biochemical, ADP Hunter fluorescence, primary and confirmatory, confirmation (AID 624330); type: functional
# T5 sequence (Q9H0H5 whole entry): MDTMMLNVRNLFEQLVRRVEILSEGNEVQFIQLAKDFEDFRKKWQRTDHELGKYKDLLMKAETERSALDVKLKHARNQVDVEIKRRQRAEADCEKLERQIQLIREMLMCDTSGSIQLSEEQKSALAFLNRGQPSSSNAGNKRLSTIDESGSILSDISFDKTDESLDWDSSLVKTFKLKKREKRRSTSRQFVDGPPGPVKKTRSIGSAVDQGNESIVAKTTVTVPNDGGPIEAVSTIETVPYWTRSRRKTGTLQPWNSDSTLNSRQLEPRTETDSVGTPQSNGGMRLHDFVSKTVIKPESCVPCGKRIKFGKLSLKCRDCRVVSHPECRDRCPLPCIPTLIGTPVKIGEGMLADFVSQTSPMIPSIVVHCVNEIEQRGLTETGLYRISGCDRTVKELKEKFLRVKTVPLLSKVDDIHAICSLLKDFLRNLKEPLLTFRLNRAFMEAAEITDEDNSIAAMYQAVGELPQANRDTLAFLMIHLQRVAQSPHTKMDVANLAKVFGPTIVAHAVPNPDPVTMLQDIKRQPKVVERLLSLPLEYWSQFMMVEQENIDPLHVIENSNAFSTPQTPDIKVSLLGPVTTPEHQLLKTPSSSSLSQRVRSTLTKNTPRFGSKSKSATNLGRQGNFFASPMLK
# [11] = target: T6, Corticotropin-releasing factor receptor 2/Corticotropin-releasing factor-binding protein (Homo sapiens, UniProt P24387+Q13324); assay: activators of CRF receptor 2 with binding protein – uHTS hits, confirmation (AID 602473); type: functional; details: read-out: EC50_Mean
# T6 sequence (Q13324 whole entry): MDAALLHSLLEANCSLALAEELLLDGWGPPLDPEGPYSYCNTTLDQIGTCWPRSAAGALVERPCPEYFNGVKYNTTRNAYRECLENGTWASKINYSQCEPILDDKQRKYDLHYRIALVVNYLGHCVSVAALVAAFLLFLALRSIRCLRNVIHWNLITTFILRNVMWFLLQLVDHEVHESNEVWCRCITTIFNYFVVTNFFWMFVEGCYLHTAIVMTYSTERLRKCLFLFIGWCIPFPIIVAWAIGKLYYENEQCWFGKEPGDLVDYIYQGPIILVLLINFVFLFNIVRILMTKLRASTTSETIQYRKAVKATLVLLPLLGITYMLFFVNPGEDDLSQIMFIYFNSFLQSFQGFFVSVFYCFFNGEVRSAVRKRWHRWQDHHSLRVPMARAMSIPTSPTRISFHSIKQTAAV
# T6 sequence (P24387 whole entry): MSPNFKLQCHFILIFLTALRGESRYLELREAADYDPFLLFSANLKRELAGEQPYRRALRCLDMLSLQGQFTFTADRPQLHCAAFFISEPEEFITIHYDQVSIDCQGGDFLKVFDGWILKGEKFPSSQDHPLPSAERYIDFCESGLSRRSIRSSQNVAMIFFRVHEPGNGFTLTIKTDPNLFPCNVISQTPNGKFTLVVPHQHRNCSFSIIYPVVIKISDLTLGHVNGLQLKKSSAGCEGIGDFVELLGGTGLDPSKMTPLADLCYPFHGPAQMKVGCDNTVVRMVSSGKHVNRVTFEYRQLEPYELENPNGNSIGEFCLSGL
# Cytochrome P450 2C9 = Cytochrome P450 2C9 (Homo sapiens, UniProt P11712)
# Cytochrome P450 2C19 = Cytochrome P450 2C19 (Homo sapiens, UniProt P33261); assay: Cytochrome panel assay with activity outcomes. Panel member name: p450-cyp2c19 Compounds with AC50 equal or less than 10 uM are considered active; type: functional; details: read-out: AC50
# T3 sequence (P49327 whole entry): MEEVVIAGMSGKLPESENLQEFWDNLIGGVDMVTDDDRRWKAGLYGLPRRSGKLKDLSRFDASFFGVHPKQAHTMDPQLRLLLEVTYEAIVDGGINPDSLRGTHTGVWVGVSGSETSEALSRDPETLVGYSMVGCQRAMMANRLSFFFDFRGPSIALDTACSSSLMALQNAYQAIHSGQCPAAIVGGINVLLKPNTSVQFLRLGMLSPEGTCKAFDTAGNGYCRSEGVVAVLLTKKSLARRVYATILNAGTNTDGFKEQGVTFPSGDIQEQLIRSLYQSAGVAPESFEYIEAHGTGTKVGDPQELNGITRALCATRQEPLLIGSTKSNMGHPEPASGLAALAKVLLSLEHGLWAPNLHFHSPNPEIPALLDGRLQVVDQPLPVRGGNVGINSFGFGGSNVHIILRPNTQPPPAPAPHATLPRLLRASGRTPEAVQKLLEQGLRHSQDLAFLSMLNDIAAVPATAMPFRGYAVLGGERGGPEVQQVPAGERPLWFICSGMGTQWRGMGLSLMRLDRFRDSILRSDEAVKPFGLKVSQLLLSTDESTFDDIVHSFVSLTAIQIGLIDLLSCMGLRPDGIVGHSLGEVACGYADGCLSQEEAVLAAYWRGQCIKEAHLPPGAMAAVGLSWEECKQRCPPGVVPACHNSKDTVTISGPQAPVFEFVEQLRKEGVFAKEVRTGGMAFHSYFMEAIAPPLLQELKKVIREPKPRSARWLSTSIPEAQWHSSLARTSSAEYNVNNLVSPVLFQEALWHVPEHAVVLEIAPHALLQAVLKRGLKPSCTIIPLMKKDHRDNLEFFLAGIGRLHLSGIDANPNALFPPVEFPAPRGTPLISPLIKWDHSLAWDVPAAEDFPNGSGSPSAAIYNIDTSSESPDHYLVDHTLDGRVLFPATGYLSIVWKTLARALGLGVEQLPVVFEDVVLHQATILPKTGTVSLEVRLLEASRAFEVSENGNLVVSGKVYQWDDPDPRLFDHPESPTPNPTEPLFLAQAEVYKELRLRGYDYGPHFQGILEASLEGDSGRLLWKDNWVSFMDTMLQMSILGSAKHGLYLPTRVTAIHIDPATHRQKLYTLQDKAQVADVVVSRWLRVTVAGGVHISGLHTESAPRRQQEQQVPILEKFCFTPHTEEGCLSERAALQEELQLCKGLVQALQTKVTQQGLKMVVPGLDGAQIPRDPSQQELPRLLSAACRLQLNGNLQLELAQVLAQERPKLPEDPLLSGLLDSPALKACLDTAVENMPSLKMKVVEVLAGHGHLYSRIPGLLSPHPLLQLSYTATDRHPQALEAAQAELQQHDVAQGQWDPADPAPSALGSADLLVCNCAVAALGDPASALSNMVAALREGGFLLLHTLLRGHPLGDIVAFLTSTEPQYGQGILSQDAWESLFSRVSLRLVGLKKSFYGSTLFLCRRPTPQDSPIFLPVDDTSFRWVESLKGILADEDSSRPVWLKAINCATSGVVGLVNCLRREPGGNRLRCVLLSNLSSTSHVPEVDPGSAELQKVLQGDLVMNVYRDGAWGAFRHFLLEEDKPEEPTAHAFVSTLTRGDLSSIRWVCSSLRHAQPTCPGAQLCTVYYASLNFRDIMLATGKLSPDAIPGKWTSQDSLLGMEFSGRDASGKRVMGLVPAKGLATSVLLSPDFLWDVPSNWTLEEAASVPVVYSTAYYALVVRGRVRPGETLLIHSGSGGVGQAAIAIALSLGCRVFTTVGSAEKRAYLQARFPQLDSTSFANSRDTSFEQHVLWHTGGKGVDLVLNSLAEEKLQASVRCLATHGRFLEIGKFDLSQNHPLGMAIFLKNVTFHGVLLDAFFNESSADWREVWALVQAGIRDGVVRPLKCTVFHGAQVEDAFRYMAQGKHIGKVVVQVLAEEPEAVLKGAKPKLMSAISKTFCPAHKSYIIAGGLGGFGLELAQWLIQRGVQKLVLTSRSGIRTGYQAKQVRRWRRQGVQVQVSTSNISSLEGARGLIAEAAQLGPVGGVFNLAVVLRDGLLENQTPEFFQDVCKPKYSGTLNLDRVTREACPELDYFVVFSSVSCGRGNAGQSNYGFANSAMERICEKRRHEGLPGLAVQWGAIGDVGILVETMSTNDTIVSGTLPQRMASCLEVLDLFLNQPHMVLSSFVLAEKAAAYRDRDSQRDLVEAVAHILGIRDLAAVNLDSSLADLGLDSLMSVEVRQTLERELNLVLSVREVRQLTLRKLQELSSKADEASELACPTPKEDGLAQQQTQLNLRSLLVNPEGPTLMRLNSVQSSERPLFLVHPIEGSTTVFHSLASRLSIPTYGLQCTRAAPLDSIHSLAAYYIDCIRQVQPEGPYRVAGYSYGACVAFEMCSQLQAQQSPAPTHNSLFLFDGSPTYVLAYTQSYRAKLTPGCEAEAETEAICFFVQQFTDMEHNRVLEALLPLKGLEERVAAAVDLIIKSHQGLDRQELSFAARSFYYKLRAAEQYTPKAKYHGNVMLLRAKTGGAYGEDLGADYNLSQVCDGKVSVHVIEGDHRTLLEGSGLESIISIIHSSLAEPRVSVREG
# Chain of Voltage-dependent T-type calcium channel subunit alpha-1H (O95180 whole entry): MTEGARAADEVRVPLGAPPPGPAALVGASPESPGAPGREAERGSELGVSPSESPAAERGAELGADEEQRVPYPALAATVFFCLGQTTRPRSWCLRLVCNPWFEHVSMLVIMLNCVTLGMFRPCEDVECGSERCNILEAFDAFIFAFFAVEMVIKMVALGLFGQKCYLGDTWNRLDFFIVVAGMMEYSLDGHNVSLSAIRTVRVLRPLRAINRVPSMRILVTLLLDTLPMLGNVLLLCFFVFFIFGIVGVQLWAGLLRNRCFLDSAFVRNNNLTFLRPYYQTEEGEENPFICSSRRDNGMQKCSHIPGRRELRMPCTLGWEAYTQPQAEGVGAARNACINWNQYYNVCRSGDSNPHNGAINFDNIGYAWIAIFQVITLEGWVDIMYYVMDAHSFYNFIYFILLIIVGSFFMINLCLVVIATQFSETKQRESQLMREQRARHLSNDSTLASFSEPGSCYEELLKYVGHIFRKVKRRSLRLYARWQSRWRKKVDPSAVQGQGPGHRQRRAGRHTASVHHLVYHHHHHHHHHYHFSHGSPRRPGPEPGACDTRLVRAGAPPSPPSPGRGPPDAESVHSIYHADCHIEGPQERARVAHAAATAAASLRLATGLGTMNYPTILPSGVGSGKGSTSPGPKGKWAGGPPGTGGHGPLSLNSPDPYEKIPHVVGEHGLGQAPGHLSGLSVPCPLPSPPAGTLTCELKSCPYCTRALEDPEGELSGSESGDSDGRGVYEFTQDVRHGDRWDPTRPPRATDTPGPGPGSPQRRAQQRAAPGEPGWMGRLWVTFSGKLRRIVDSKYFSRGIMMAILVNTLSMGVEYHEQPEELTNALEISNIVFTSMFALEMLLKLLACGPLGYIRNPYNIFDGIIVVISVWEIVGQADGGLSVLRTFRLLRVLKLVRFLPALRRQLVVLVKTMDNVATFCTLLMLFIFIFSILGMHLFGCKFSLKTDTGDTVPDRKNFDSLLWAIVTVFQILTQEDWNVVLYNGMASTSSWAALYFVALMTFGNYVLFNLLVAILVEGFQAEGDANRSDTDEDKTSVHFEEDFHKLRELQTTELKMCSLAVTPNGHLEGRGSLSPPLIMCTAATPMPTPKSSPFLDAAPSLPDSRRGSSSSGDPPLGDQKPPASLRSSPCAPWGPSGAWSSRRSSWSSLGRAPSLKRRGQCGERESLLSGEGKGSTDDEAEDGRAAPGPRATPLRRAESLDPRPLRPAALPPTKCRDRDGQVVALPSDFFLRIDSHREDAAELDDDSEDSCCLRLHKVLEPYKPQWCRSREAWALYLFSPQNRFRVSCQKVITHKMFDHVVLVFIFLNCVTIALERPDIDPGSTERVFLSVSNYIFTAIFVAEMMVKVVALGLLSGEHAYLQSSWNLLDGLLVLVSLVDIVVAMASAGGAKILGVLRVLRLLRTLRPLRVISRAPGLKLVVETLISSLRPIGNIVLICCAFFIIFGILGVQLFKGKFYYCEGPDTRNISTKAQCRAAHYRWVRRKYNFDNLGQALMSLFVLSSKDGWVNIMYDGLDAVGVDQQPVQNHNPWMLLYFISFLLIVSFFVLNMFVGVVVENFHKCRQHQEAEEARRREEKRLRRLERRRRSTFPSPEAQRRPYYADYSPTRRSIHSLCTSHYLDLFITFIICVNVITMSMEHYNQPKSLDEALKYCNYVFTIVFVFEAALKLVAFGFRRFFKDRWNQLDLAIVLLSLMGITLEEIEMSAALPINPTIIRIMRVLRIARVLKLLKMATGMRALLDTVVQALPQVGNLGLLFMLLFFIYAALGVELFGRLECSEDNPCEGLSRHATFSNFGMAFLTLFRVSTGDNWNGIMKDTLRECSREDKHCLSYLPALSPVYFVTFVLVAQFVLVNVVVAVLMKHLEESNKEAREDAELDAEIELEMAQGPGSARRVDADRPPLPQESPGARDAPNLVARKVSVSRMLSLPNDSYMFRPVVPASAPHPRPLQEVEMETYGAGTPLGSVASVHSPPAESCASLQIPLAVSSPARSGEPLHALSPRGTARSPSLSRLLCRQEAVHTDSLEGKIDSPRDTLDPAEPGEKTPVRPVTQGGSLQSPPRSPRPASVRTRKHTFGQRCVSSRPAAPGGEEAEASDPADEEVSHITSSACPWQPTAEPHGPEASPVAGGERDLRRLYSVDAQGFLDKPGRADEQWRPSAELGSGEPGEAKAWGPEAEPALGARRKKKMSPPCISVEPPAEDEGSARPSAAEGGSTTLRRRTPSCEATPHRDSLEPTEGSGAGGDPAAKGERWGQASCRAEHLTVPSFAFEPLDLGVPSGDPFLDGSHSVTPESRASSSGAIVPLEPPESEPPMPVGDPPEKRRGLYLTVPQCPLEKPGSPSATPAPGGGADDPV
structure (smiles),measurement,setting,value
CCN(CC)CC(O)c1ccc2ccc3ccc(O)cc3c2c1 (centres undefined),AC50,[1],23.3 µM (active)
same,AC50,[2],7.92 µM (active)
same,CC50,Vero,> 25 µM (active)
Cc1nn(Cc2ccc(Cl)c(Cl)c2)c(C)c1NC(=O)c1cn(-c2ccccc2)nc1-c1ccccc1,EC50,[3],1.99 µM (active)
same,EC50,[4],> 60 µM (not active)
same,EC50,[5],5.29 µM (active)
COc1ccc2cc3cc(C(=O)NCCCN4CCC(C)CC4)oc3nc2c1,AC50,[1],29.2 µM (active)
COCCn1nnnc1C(c1cccs1)N1CCN(c2cccc(C(F)(F)F)c2)CC1 (centres undefined),EC50,[5],97.8 µM (active)
COc1ccc2[nH]c3c(c2c1)CCN1C(=O)C(CC(=O)NCc2ccco2)C[C@H](C(=O)N2CCOCC2)[C@@]31CCC1CCCC1 (some centres undefined),IC50,Fatty acid synthase [6],4.73 µM (active)
same,IC50,Fatty acid synthase [7],5.98 µM (active)
COc1ccc(Cl)cc1-c1cc(C(=O)NCc2cccc(Cl)c2)[nH]n1,IC50,Fatty acid synthase [6],5.46 µM (active)
same,IC50,Fatty acid synthase [7],12.4 µM (active)
CCOc1ccc(NC(=O)c2cc([N+](=O)[O-])ccc2N2CCOCC2)cc1,IC50,Fatty acid synthase [6],13.7 µM (active)
same,IC50,Fatty acid synthase [7],13.4 µM (active)
CCCN1CCN(C(S)=Nc2ccc3nc(N4CCN(CC)CC4)cc(C)c3c2)CC1,AC50,[1],82.8 µM (active)
same,AC50,[2],15.3 µM (active)
COc1ccc(C(=O)NC(C)CCc2ccccc2)cc1[N+](=O)[O-] (centres undefined),IC50,Fatty acid synthase [6],9.58 µM (active)
same,IC50,Fatty acid synthase [7],13.4 µM (active)
CCCN(c1nc(C)cc(OC)n1)S(=O)(=O)c1ccccc1,EC50,[8],2.11 µM (active)
Cc1ccccc1Cn1nc(C)c(NC(=O)c2noc3c2CCc2ccccc2-3)c1C,EC50,[5],1.92 µM (active)
CCOc1ccccc1CN1CCNC(=O)C1CC(=O)NCCc1ccccn1 (centres undefined),EC50,[9],5.96 µM (active)
COc1ccc(/C=C(/NC(=O)c2ccc([N+](=O)[O-])cc2)C(=O)NCCCN(C)C)cc1,IC50,Fatty acid synthase [6],3.13 µM (active)
same,IC50,Fatty acid synthase [7],5.03 µM (active)
c1ccc2c(N3CCCCC3)nc(N3CCOCC3)nc2c1,EC50,[8],1.88 µM (active)
COc1ccc(C(CNC(=O)Cc2cccs2)N(C)C)cc1 (centres undefined),EC50,[9],0.237 µM (active)
COc1ccc(-c2noc(CSc3nnc(Cc4ccccc4)n3-c3cccc(C)c3)n2)cc1OC,EC50,[5],4.35 µM (active)
CCC(SC1=N/C(=C/c2ccccc2OC)C(=O)N1c1ccccc1)C(=O)Nc1cc(C)on1 (centres undefined),EC50,[5],4.23 µM (active)
CCn1c(N2CCN(C(S)=NCCc3ccccc3)CC2)nc2ccccc21,EC50,[9],0.376 µM (active)
CN(C)CCN(C(=O)CN1C(=O)c2ccccc2C1=O)c1nc2cc3c(cc2s1)OCO3,AC50,[1],41.5 µM (active)
same,AC50,[2],23.9 µM (active)
CN(C)CCCN(C(=O)c1ccc(C(=O)c2ccccc2)cc1)c1nc2ccc(F)cc2s1,EC50,[3],0.104 µM (active)
same,EC50,[9],5.96 µM (active)
same,EC50,[4],> 60 µM (not active)
CCCCN(C)C(=O)C1CCN(Cc2ccc(OCc3ccccc3)cc2)CC1,IC50,[10],204 µM (active)
same,EC50,[5],7.3 µM (active)
Cc1c([N+](=O)[O-])cc(C(=O)Nc2ccc(Cc3ccncc3)cc2)cc1[N+](=O)[O-],EC50,[3],0.799 µM (active)
same,IC50,Fatty acid synthase [6],8.08 µM (active)
same,EC50,[4],> 60 µM (not active)
same,IC50,Fatty acid synthase [7],7.27 µM (active)
O=C1c2ccccc2S(=O)(=O)c2cc(C(=O)N(c3ccccn3)c3ccccn3)ccc21,EC50,[9],1.88 µM (active)
same,EC50,[11],4.15 µM (active)
COC(=O)[C@@]1(Cc2ccc(F)cc2)[C@H]2c3cc(C(=O)N(C)C)n(CCc4ccccn4)c3C[C@H]2CN1C(=O)c1ccccc1,AC50,Cytochrome P450 2C9,10 µM (inconclusive)
same,AC50,Cytochrome P450 2C19,39.8 µM (inconclusive)
same,EC50,[9],5.96 µM (active)
